From patent US4061649A, “Clavulanic acid sulphates” (Beecham Group Limited, priority 1975, dated 1977)
Counter-ions that a name gives are not always drawn.

Experiments:
[1] = system: strains of Klebsiella aerogenes A; assay: growth inhibition, penicillins with and without clavulanic acid or ester; format: cell-based
[2] = system: strains of Staphylococcus aureus; assay: growth inhibition; format: cell-based
[3] = system: β-lactamase producing strains of Escherichia coli, Klebsiella aerognes and Staphylococcus aureus; assay: synergism with ampicillin; format: cell-based
[4] = system: β-lactamase producing strains of Proteus mirabilis and Staphylococcus aureus; assay: synergism with cephaloridine; format: cell-based
[5] = molecular target: T1, Pseudomonas Dalgleish β-lactamase (Pseudomonas aeruginosa, UniProt P16897); assay: β-lactamase I50, method of Belgian Pat. No. 827926; format: biochemical
T1 construct: host or cells: Pseudomonas (aeruginosa) Dalgleish
T1 sequence (P16897 18-288): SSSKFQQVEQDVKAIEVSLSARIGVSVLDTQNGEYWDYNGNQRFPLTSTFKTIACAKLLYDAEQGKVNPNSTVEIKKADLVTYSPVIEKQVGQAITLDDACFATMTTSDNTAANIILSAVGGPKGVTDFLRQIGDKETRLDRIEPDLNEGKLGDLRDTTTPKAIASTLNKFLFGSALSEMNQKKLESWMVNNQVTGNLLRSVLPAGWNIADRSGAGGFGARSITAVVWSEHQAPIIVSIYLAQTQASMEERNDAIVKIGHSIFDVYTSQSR
Protocol: (§1) The I50 in μg/ml of this compound against several β-lactamaseswas determined using the method described in Belgian Pat. No. 827926 and the results are as follows: […]

[6] = molecular target: T2, Escherischia coli JT4 β-lactamase (Escherichia coli, UniProt P62593); assay: β-lactamase I50, method of Belgian Pat. No. 827926; format: biochemical
T2 construct: host or cells: Escherichia coli JT4
T2 sequence (P62593 24-286 limits assumed): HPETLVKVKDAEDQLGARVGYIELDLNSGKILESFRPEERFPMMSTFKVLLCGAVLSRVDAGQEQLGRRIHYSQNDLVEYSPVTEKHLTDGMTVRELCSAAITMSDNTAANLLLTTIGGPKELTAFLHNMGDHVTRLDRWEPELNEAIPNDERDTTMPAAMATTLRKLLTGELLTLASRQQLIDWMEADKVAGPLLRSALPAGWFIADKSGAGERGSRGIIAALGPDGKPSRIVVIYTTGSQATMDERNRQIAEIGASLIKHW
Protocol: as §1

Enterobacter cloacae [7] = assay: MIC / synergism, microtitre method (Example 42); format: cell-based; settings: compound alone; inoculum 0.5 × 10^-2
Escherichia coli B 11 = assay: MIC / synergism, microtitre method (Example 42); format: cell-based; settings: compound alone; inoculum 0.5 × 10^-2
bacteria = assay: tests for antibacterial activity in broth (Example 32); format: cell-based; settings: possibly due to clavulanic acid liberated by slow hydrolysis
Providentia stuartii = assay: MIC, microtitre method (Example 30); settings: approximate MIC; inoculum final dilution 0.5 × 10^-4
Protocol: (§2) The cultures were incubated overnight and the points of bacterial growth recorded next morning by observing the turbidity of the culture.

Proteus vulgaris W090 = assay: MIC, microtitre method (Example 30); settings: approximate MIC; inoculum final dilution 0.5 × 10^-4
Protocol: as §2

Staphylococcus aureus = assay: MIC / synergism, microtitre method (Example 42); format: cell-based
Salmonella typhimurium = assay: MIC, microtitre method (Example 30); settings: approximate MIC; inoculum final dilution 0.5 × 10^-4
Protocol: as §2

[8] = system: Enterobacter aerogenes T 624; assay: MIC, microtitre method (Example 30); settings: approximate MIC; inoculum final dilution 0.5 × 10^-4
Protocol: as §2

Streptococcus faecalis = assay: MIC, microtitre method (Example 30); settings: approximate MIC; inoculum final dilution 0.5 × 10^-4
Protocol: as §2

Bacillus subtilis = assay: MIC, microtitre method (Example 30); settings: approximate MIC; inoculum final dilution 0.5 × 10^-4
Protocol: as §2

Serratia marcescens [9] = assay: MIC / synergism, microtitre method (Example 42); format: cell-based; settings: compound alone; inoculum 0.5 × 10^-2
Shigella sonnei = assay: MIC, microtitre method (Example 30); settings: approximate MIC; inoculum final dilution 0.5 × 10^-4
Protocol: as §2

Klebsiella oxytocum = assay: MIC, microtitre method (Example 30); settings: approximate MIC; inoculum final dilution 0.5 × 10^-4
Protocol: as §2

Staph.aureus Russell = assay: MIC, method of Example 30 with 1/100 dilution of overnight broth (Example 46); settings: heavy inocula (1/100 of overnight broth); no unit in table (Example 30: μg/ml)
Protocol: as §2

Klebsiella aerogenes = assay: MIC, microtitre method (Example 30); settings: approximate MIC; inoculum final dilution 0.5 × 10^-4
Protocol: as §2

Enterobacter cloacae [10] = assay: MIC, microtitre method (Example 30); settings: approximate MIC; inoculum final dilution 0.5 × 10^-4
Protocol: as §2

[11] = system: Escherichia coli NCTC 10418; assay: MIC, microtitre method (Example 30); settings: approximate MIC; inoculum final dilution 0.5 × 10^-4
Protocol: as §2

Proteus mirabilis 899 = format: cell-based
[12] = blood and tissue levels in female mice; format: in vivo; settings: oral administration of 100 mg/kg
Proteus mirabilis 0977 = assay: MIC, microtitre method (Example 30); settings: approximate MIC; inoculum final dilution 0.5 × 10^-4
Protocol: as §2

Pseudomonas aeruginosa A = assay: MIC, microtitre method (Example 30); settings: approximate MIC; inoculum final dilution 0.5 × 10^-4
Protocol: as §2

Staph.aureus Oxford = assay: MIC, method of Example 30 with 1/100 dilution of overnight broth (Example 46); settings: heavy inocula (1/100 of overnight broth); no unit in table (Example 30: μg/ml)
Protocol: as §2

Serratia marcescens [13] = assay: MIC, microtitre method (Example 30); settings: approximate MIC; inoculum final dilution 0.5 × 10^-4
Protocol: as §2

Acinetobacter anitratus = assay: MIC, microtitre method (Example 30); settings: approximate MIC; inoculum final dilution 0.5 × 10^-4
Protocol: as §2

Bacillus subtilis A = assay: MIC, method of Example 30 with 1/100 dilution of overnight broth (Example 46); settings: heavy inocula (1/100 of overnight broth); no unit in table (Example 30: μg/ml)
Protocol: as §2

[14] = system: Streptococcus pyogenes CN 10; assay: MIC, microtitre method (Example 30); settings: approximate MIC; inoculum final dilution 0.5 × 10^-4
Protocol: as §2

[15] = system: Staphylococcus aureus(Russell); assay: MIC / synergism, microtitre method (Example 42); format: cell-based
[16] = in presence of 5μg/ml clavulanic acid sodium salt

## O=C(O)[C@H]1/C(=C/CO)O[C@@H]2CC(=O)N21 [clavulanic acid, Z-(2R,5R)-3-(β-hydroxyethylidene)-7-oxo-4-oxa-1-azabicyclo[3,2,0]heptane-2-carboxylic acid]
[1]; Klebsiella aerogenes, compound alone, read-out: concentration by which growth is not inhibited
  MIC: > 10 mg/L
[2]
  inhibition of growth: able to inhibit the growth
[3]
  synergism of the antibacterial effect of ampicillin: able to synergyze the antibacterial effect of ampicillin
[4]
  synergism of the antibacterial effect of cephaloridine: able to synergyze the antibacterial effect of cephaloridine

## CC1(C)S[C@@H]2[C@H](NC(=O)Cc3ccccc3)C(=O)N2[C@H]1C(=O)O [Benzylpenicillin, benzylpenicillin, reference compound]
[1]; when 5 μg/ml. of clavulanic acid is also present
  concentration by which growth is inhibited: less than 12.5 μg/ml

## O=C(OCc1ccccc1)[C@H]1/C(=C/COS(=O)(=O)O)O[C@@H]2CC(=O)N21 [Example 50, Benzyl Clavulanate -- O -- sulphonate trimethylamine salt]
[5]
  IC50: 11.4 µM
[6]
  IC50: 9.21 µM

## CC1(C)S[C@@H]2[C@H](NC(=O)[C@H](N)c3ccccc3)C(=O)N2[C@H]1C(=O)O [Ampicillin, ampicillin, reference compound]
Enterobacter cloacae [7]
  Minimum Inhibitory Concentrations: 250 µg/mL
Escherichia coli B 11
  Minimum Inhibitory Concentrations: > 500 µg/mL

## COC(=O)[C@H]1/C(=C/CO)O[C@@H]2CC(=O)N21 [clavulanic acid methyl ester]
bacteria
  antibacterial activity in broth: broad spectrum activity but of a lower order than shown by clavulanic acid

## O=C(O)[C@H]1/C(=C/CO)O[C@@H]2CC(=O)N21 [clavulanic acid sodium salt, 3-(β-hydroxyethylidine)-7-oxo-4-oxa-1-azabicyclo [3,2,0]heptane-2-carboxylic acid sodium salt]
Providentia stuartii
  Minimum Inhibitory Concentration: 125 µg/mL
Enterobacter cloacae [7]
  Minimum Inhibitory Concentrations: 62 µg/mL
Proteus vulgaris W090
  Minimum Inhibitory Concentration: 31 µg/mL
Staphylococcus aureus; compound alone, inoculum 0.5 × 10^-2
  Minimum Inhibitory Concentrations: 62 µg/mL
Salmonella typhimurium
  Minimum Inhibitory Concentration: 31 µg/mL
[8]
  Minimum Inhibitory Concentration: 31 µg/mL
Streptococcus faecalis
  Minimum Inhibitory Concentration: > 500 µg/mL
Bacillus subtilis
  Minimum Inhibitory Concentration: 62 µg/mL
Serratia marcescens [9]
  Minimum Inhibitory Concentrations: 125 µg/mL
Shigella sonnei
  Minimum Inhibitory Concentration: 62 µg/mL
Klebsiella oxytocum
  Minimum Inhibitory Concentration: 62 µg/mL
Staph.aureus Russell
  MIC: 15
Klebsiella aerogenes
  Minimum Inhibitory Concentration: 31 to 62 µg/mL
Enterobacter cloacae [10]
  Minimum Inhibitory Concentration: 62 µg/mL
[11]
  Minimum Inhibitory Concentration: 31 µg/mL
Proteus mirabilis 899
  Minimum Inhibitory Concentrations: < 500 µg/mL
[12]
  levels of clavulanic acid: useful levels
Proteus mirabilis 0977
  Minimum Inhibitory Concentration: 62 µg/mL
Pseudomonas aeruginosa A
  Minimum Inhibitory Concentration: 500 µg/mL
Staph.aureus Oxford
  MIC: 15
Serratia marcescens [13]
  Minimum Inhibitory Concentration: 125 µg/mL
Acinetobacter anitratus
  Minimum Inhibitory Concentration: 125 µg/mL
Bacillus subtilis A
  MIC: 62
[14]
  Minimum Inhibitory Concentration: 125 µg/mL

## O=C(Cc1cccs1)N[C@@H]1C(=O)N2C(C(=O)[O-])=C(C[n+]3ccccc3)CS[C@H]12 [Cephaloridine, cephaloridine]
Staphylococcus aureus; [16]
  Minimum Inhibitory Concentrations: 3.7 µg/mL
[15]; [16]
  Minimum Inhibitory Concentrations: > 0.03 µg/mL
[15]; synergist (clavulanic acid sodium salt) added at 1 μg/ml. instead of 5 μg/ml., compared with the value at 5 μg/ml
  Minimum Inhibitory Concentrations: Same value
